By IC50 is commonly meant the point on the concentration scale where inhibition reaches its midpoint.

The target of assay [1] is Epidermal growth factor receptor (Homo sapiens, UniProt P00533). The assay is described as follows: In Vitro Tyrosine Kinase Enzyme Assay. The method, then: (§1) Protein kinase assays were performed at ambient temperature for 20-40 min (depending on the target) in a final volume of 25 μl according to the following assay reaction recipe: […] of diluted active protein kinase target (~10-50 nM final protein concentration in the assay), 2.5 μl of peptide substrate, 3. μl of kinase assay buffer, 5 μl of compound or 10% DMSO, and 5 μl of 33P-ATP (250 μM stock solution, 0.8 mCi). The assay was initiated by the addition of 33P-ATP and the reaction mixture was incubated at ambient temperature for 20-40 min, depending on the protein kinase target. After the incubation period, the assay was terminated by spotting 10 μl of the reaction mixture onto Multiscreen phosphocellulose P81 plate. The Multiscreen phosphocellulose P81 plate was washed three times for approximately 15 min each in a 1% phosphoric acid solution. The radioactivity on the P81 plate (EMD Millipore Corporation, Billerica, MA) was counted in the presence of scintillation fluid in a Trilux scintillation counter (GMI Inc., Ramsey, MN).
Epidermal growth factor receptor, sequence (P00533 whole entry): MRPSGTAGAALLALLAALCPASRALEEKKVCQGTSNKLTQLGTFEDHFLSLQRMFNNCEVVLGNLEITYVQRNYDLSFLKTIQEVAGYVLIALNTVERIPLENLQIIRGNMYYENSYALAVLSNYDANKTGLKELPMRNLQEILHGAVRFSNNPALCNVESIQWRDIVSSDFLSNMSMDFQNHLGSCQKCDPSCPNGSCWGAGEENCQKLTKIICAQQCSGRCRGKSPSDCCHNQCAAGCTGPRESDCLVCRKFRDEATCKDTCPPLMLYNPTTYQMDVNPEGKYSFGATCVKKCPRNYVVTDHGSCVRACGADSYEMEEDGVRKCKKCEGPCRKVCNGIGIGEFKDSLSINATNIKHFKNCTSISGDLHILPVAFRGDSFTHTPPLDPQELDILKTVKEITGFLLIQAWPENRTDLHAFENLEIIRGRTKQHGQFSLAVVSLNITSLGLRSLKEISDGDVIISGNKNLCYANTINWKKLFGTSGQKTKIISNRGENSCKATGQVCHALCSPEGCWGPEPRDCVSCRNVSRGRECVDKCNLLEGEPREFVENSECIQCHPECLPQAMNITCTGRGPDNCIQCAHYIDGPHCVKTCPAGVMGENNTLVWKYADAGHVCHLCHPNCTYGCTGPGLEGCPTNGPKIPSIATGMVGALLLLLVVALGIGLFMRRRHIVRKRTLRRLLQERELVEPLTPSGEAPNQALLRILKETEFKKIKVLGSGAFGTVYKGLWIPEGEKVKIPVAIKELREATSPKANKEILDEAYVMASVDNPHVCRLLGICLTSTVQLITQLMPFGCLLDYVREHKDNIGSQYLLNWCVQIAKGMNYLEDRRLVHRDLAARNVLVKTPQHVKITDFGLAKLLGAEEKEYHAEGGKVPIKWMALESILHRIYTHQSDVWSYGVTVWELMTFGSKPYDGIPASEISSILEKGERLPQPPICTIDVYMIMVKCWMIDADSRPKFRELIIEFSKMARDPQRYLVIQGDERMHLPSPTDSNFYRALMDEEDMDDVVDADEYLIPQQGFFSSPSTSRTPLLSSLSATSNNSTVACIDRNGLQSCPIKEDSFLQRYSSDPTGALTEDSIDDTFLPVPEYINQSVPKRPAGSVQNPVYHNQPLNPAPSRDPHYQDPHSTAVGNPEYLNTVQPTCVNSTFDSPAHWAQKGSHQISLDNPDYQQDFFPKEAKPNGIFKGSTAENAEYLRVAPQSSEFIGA

Assay [2] concerns the target Receptor tyrosine-protein kinase erbB-2 (Homo sapiens, UniProt P04626). The assay is described as follows: In Vitro Tyrosine Kinase Enzyme Assay. The protocol: as §1

Receptor tyrosine-protein kinase erbB-2, sequence (P04626 whole entry): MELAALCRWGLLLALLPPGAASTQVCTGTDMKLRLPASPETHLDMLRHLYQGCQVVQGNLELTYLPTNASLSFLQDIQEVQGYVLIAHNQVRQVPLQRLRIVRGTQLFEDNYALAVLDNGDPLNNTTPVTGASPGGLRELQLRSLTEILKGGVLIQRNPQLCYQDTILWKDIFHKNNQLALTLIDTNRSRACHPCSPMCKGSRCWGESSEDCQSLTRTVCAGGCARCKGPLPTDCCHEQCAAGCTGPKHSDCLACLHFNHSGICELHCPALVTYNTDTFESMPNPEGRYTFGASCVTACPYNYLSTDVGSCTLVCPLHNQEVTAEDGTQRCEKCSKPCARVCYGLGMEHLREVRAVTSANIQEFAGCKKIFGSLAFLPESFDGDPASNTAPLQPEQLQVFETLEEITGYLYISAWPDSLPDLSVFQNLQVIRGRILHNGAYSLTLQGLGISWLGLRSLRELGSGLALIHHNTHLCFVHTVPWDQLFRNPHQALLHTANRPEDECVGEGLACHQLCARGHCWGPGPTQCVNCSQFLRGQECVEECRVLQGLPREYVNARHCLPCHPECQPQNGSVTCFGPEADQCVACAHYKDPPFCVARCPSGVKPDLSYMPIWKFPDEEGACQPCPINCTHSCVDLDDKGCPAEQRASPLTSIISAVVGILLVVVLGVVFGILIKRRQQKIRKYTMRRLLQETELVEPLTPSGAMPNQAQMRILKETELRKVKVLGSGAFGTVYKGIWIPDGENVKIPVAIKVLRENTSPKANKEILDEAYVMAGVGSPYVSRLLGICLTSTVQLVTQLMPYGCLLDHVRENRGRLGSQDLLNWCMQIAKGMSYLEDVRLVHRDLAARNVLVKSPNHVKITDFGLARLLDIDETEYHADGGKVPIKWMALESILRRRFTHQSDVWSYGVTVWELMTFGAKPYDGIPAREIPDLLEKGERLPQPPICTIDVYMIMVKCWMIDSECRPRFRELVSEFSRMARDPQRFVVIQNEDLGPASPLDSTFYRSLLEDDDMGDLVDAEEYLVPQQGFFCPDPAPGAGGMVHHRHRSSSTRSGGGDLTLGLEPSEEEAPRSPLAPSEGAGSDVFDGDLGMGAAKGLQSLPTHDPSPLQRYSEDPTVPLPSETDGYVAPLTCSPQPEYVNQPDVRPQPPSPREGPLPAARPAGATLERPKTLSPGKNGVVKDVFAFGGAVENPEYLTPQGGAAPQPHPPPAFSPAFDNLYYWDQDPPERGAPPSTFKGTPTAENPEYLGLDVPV

As to `N#Cc1c(-c2ccc(F)cc2)cc(-c2ccc(Nc3ncnc4ccccc34)cc2)[nH]c1=N` [HER2/EGFR dual kinase inhibitor, 5d], the IC50 amounted to 2090 nM in assay [1] and 3980 nM in assay [2].
On to `COc1cc2ncnc(Nc3ccc(-c4cc(-c5ccc(Br)cc5)c(C#N)c(=N)[nH]4)cc3)c2cc1OC` [HER2/EGFR dual kinase inhibitor, 5e], for which the IC50 in assay [1] amounted to 1930 nM; in assay [2], 1040 nM.
Regarding `COc1cc2ncnc(Nc3ccc(C(=O)/C=C/c4ccc(Cl)cc4)cc3)c2cc1OC` [(E)-3-(4-Chlorophenyl)-1-{4-[(6,7-dimethoxyquinazolin-4-yl)amino]phenyl}prop-2-en-1-one], the IC50 in assay [1] was determined as 2580 nM; in assay [2] it was 98800 nM.

(Values after BindingDB's records for doi:10.3109/14756366.2013.765417 (Msa University, 2014).)
